Data as given in DBAASP.
In brackets after ≈: the same amount, converted by molar mass. Several values for one entry are separate records, joined by “and”; a condition that tells them apart may be missing. Identical values can stand only once.

Assays:
Experiment in all cases: ≥ marks a high value that may be exact or a test limit, other limits are often not marked, values filed in µg/mL are converted to µM
[1] = tested on: Escherichia coli ATCC 25922
Escherichia coli = tested on: Escherichia coli
Staphylococcus aureus = tested on: Staphylococcus aureus
[2] = tested on: Staphylococcus aureus ATCC 25923
[3] = tested on: Pseudomonas aeruginosa ATCC 27853

| Structure (SMILES) | MIC [1] | MIC [2] [µM] | other results |
| --- | --- | --- | --- |
| CC(C)C[C@H](NC(=O)[C@H](CCC(N)=O)NC(=O)[C@H](CCCN=C(N)N)NC(=O)[C@H](CCCN=C(N)N)NC(=O)[C@@H]1CCCN1C(=O)[C@H](C)N)C(=O)N[C@@H](CCCCN)C(=O)N[C@@H](Cc1c[nH]c2ccccc12)C(=O)O [APRRQLKW] | 15.2 µM (≈ 16 µg/mL) |  |  |
| CSCC[C@@H]1NC(=O)[C@H](CC(C)C)NC(=O)[C@H](CCCN=C(N)N)NC(=O)[C@H](CO)NC(=O)[C@@H]2CSSC[C@@H]3NC(=O)[C@H](CO)NC(=O)CNC(=O)[C@H]([C@@H](C)O)NC(=O)[C@H](CSSC[C@H](N)C(=O)N[C@@H](CCCCN)C(=O)NCC(=O)N[C@@H](CCCCN)C(=O)NCC(=O)N[C@@H](C)C(=O)N[C@@H](CCCCN)C(=O)N2)NC(=O)[C@H](CSSC[C@@H](C(=O)NCC(=O)N[C@@H](CO)C(=O)O)NC(=O)[C@H](CCCCN)NC(=O)CNC(=O)[C@H](CO)NC(=O)[C@H](CCCN=C(N)N)NC3=O)NC(=O)[C@H](CC(=O)O)NC(=O)[C@H](Cc2ccc(O)cc2)NC1=O [CKGKGAKCSRLMYDCCTGSCRSGKCGS] |  |  | MIC (Escherichia coli): > 500 µM; MIC (Staphylococcus aureus): > 500 µM |
| CC(C)[C@H](NC(=O)[C@H](CCCCN)NC(=O)[C@@H](N)Cc1ccccc1)C(=O)N[C@H](C(=O)N[C@@H](Cc1c[nH]c2ccccc12)C(=O)N[C@@H](CCCCN)C(=O)N[C@H](C(=O)N[C@@H](CCCCN)C(=O)N[C@@H](Cc1c[nH]c2ccccc12)C(=O)N[C@@H](Cc1c[nH]c2ccccc12)C(=O)N[C@@H](CCCCN)C(=O)NCC(N)=O)[C@@H](C)O)[C@@H](C)O [FKVTWKTKWWKG] | 4.38 µM (≈ 6.99 µg/mL) | 7.59 (≈ 12.1 µg/mL) |  |
| CC[C@H](C)[C@H](NC(=O)[C@H](CCCCN)NC(=O)[C@H](CC(C)C)NC(=O)[C@H](C)NC(=O)[C@H](C)NC(=O)[C@H](CCCCN)NC(=O)[C@H](CC(C)C)NC(=O)[C@H](C)NC(=O)[C@H](CCCCN)NC(=O)CNC(=O)[C@H](CC(C)C)NC(=O)[C@H](Cc1ccccc1)NC(=O)[C@H](CO)NC(=O)CNC(=O)[C@H](Cc1ccccc1)NC(=O)CN)C(=O)NCC(=O)N[C@@H](C)C(=O)N[C@@H](CC(=O)O)C(=O)N[C@H](C(=O)N[C@@H](CC(C)C)C(=O)NCC(=O)NCC(=O)N[C@@H](C)C(=O)N1CCC[C@H]1C(=O)N[C@@H](CCC(N)=O)C(=O)N[C@@H](CCC(N)=O)C(=O)O)C(C)C [GFGSFLGKALKAALKIGADVLGGAPQQ] |  |  | MIC (Escherichia coli): > 50 µM; MIC (Staphylococcus aureus): 25 µM (≈ 65.4 µg/mL) |
| CC(C)C[C@H](NC(=O)[C@H](C)NC(=O)[C@H](CCCCN)NC(=O)[C@H](C)NC(=O)[C@H](C)NC(=O)CNC(=O)[C@H](CCCCN)NC(=O)[C@H](CC(C)C)NC(=O)[C@H](CC(C)C)NC(=O)[C@H](CC(=O)O)NC(=O)[C@H](CCCCN)NC(=O)[C@H](Cc1ccccc1)NC(=O)CN)C(=O)N[C@H](C(=O)N[C@@H](CCCCN)C(=O)N[C@H](C(=O)N[C@H](C(=O)N[C@@H](CC(C)C)C(=O)N[C@@H](CCCCN)C(N)=O)C(C)C)[C@@H](C)O)C(C)C [GFKDLLKGAAKALVKTVLK] | 5 µM (≈ 10 µg/mL) | 18.8 (≈ 37.6 µg/mL) |  |
| CC[C@H](C)[C@H](NC(=O)CN)C(=O)N[C@@H](CCSC)C(=O)N[C@@H](CC(=O)O)C(=O)N[C@@H](CO)C(=O)N[C@H](C(=O)N[C@@H](CCCCN)C(=O)N[C@@H](CC(N)=O)C(=O)N[C@@H](C)C(=O)N[C@@H](C)C(=O)N[C@@H](CCCCN)C(=O)N[C@@H](CC(N)=O)C(=O)N[C@@H](CC(C)C)C(=O)N[C@@H](C)C(=O)NCC(=O)N[C@@H](CCC(N)=O)C(=O)N[C@@H](CC(C)C)C(=O)N[C@@H](CC(C)C)C(=O)N[C@@H](CC(=O)O)C(=O)N[C@H](C(=O)N[C@H](C(=O)N[C@@H](CCCCN)C(=O)N[C@H]1CSSC[C@@H](C(=O)O)NC(=O)[C@H](C)NC(=O)[C@H]([C@@H](C)O)NC(=O)[C@H]([C@@H](C)CC)NC(=O)[C@H](CCCCN)NC1=O)[C@@H](C)CC)[C@@H](C)O)C(C)C [GIMDSVKNAAKNLAGQLLDTIKCKITAC] | 25 µM (≈ 73 µg/mL) |  |  |
| CC[C@H](C)[C@H](NC(=O)[C@H](CCCN=C(N)N)NC(=O)[C@H](CCCCN)NC(=O)[C@H](C)NC(=O)[C@H](CC(C)C)NC(=O)CN)C(=O)N[C@@H](CCCCN)C(=O)N[C@H](C(=O)N[C@@H](CC(C)C)C(=O)N[C@@H](CC(C)C)C(N)=O)[C@@H](C)O [GLAKRIKTLL] | > 34.2 µM | > 34.2 |  |
| CC[C@H](C)[C@H](NC(=O)[C@H](CC(C)C)NC(=O)[C@H](CCCCN)NC(=O)[C@H](CC(C)C)NC(=O)[C@H](CC(C)C)NC(=O)CN)C(=O)N[C@@H](CCCCN)C(=O)N[C@H](C(=O)N[C@@H](CC(C)C)C(=O)N[C@@H](CC(C)C)C(N)=O)[C@@H](C)O [GLLKLIKTLL] | 1.8 µM (≈ 2 µg/mL) | 1.8 (≈ 2 µg/mL) |  |
| CC[C@H](C)[C@H](NC(=O)[C@H](CCCCN)NC(=O)[C@@H](NC(=O)[C@H](CCCN=C(N)N)NC(=O)[C@H](CCCCN)NC(=O)[C@H](CC(C)C)NC(=O)[C@H](CC(C)C)NC(=O)CN)[C@@H](C)CC)C(=O)N[C@@H](CC(C)C)C(=O)N[C@@H](CC(C)C)C(N)=O [GLLKRIKILL] | 7.72 µM (≈ 8.99 µg/mL) | 12 (≈ 14 µg/mL) |  |
| CC[C@H](C)[C@H](NC(=O)[C@H](CCCN=C(N)N)NC(=O)[C@H](CCCCN)NC(=O)[C@H](CC(C)C)NC(=O)[C@H](CC(C)C)NC(=O)CN)C(=O)N[C@@H](CCCCN)C(=O)N[C@@H](CO)C(=O)N[C@@H](CC(C)C)C(=O)N[C@@H](CC(C)C)C(N)=O [GLLKRIKSLL] | 100 µM (≈ 114 µg/mL) |  |  |
| CC[C@H](C)[C@H](NC(=O)[C@H](CCCN=C(N)N)NC(=O)[C@H](CCCCN)NC(=O)[C@H](CC(C)C)NC(=O)[C@H](CC(C)C)NC(=O)CN)C(=O)N[C@@H](CCCCN)C(=O)N[C@H](C(=O)N[C@@H](CC(C)C)C(=O)N[C@@H](C)C(N)=O)[C@@H](C)O [GLLKRIKTLA] | > 43.1 µM | > 43.1 |  |
| CC[C@H](C)[C@H](NC(=O)[C@H](CCCN=C(N)N)NC(=O)[C@H](CCCCN)NC(=O)[C@H](CC(C)C)NC(=O)[C@H](CCSC)NC(=O)CN)C(=O)N[C@@H](CCCCN)C(=O)N[C@H](C(=O)N[C@@H](CC(C)C)C(=O)N[C@@H](CCSC)C(N)=O)[C@@H](C)O [GMLKRIKTLM] | > 200 µM |  |  |
| CC[C@H](C)[C@H](N)C(=O)NCC(=O)N[C@@H](CCCCN)C(=O)N[C@@H](CC(C)C)C(=O)N1CCC[C@H]1C(=O)N[C@@H](CCCCN)C(=O)N[C@@H](Cc1c[nH]c2ccccc12)C(=O)N[C@H](C(=O)N[C@H](C(=O)N[C@@H](CCCCN)C(=O)N[C@H](C(=O)N[C@H](C(=O)N[C@@H](CC(N)=O)C(=O)N[C@@H](CCCCN)C(=O)N[C@@H](Cc1ccccc1)C(=O)N[C@H](C(=O)N[C@@H](CCCCN)C(=O)N[C@@H](CCCCN)C(=O)O)[C@@H](C)O)C(C)C)[C@@H](C)O)[C@@H](C)CC)[C@@H](C)CC [IGKLPKWIIKTVNKFTKK] |  |  | MIC (Escherichia coli): 2.1 µM (≈ 4.5 µg/mL) |
| CC(C)C[C@H](NC(=O)[C@H](C)NC(=O)[C@H](CCCCN)NC(=O)[C@H](CC(C)C)NC(=O)[C@H](C)NC(=O)[C@H](CCCCN)NC(=O)[C@H](CCCCN)NC(=O)[C@H](CC(C)C)NC(=O)[C@H](C)NC(=O)[C@H](CCCCN)NC(=O)[C@H](CC(C)C)NC(=O)[C@H](C)NC(=O)[C@H](CCCCN)NC(=O)[C@H](CCCCN)NC(=O)[C@H](CC(C)C)NC(=O)[C@H](C)NC(=O)[C@H](CCCCN)NC(=O)[C@H](CC(C)C)NC(=O)[C@H](C)NC(=O)[C@@H](N)CCCCN)C(=O)N[C@@H](CCCCN)C(N)=O [KALKALKKALKALKKALKALK] | 4 µM (≈ 9.1 µg/mL) | 8 (≈ 18.2 µg/mL) | MIC [3]: 4 µM (≈ 9.1 µg/mL) |
| CC[C@H](C)[C@H](NC(=O)[C@H](CCCCN)NC(=O)[C@H](CCCN=C(N)N)NC(=O)[C@H](CC(C)C)NC(=O)[C@H](CCCN=C(N)N)NC(=O)[C@H](CO)NC(=O)[C@H](Cc1c[nH]c2ccccc12)NC(=O)[C@@H](NC(=O)[C@@H](N)CCCCN)C(C)C)C(=O)N[C@@H](Cc1ccccc1)C(=O)N[C@@H](CO)C(=O)N[C@H](C(=O)N[C@@H](CCCN=C(N)N)C(N)=O)[C@@H](C)O [KVWSRLRKIFSTR] | 2.64 µM and 5.27 µM |  |  |
| CC(C)C[C@H](NC(=O)[C@H](Cc1ccccc1)NC(=O)[C@@H]1CCCN1C(=O)[C@H](C)NC(=O)[C@H](Cc1c[nH]c2ccccc12)NC(=O)[C@H](C)NC(=O)[C@@H]1CCCN1C(=O)[C@H](Cc1ccccc1)NC(=O)[C@H](CCCN=C(N)N)NC(=O)[C@H](CCCN=C(N)N)NC(=O)[C@@H](N)C(C)C)C(=O)N[C@@H](CCCN=C(N)N)C(=O)N[C@@H](CCCN=C(N)N)C(N)=O [VRRFPAWAPFLRR] | 90.5 µM (≈ 151 µg/mL) |  |  |
| CC(C)C[C@H](NC(=O)[C@H](Cc1ccccc1)NC(=O)[C@@H]1CCCN1C(=O)[C@H](C)NC(=O)[C@H](C)NC(=O)[C@H](Cc1c[nH]c2ccccc12)NC(=O)[C@@H]1CCCN1C(=O)[C@H](Cc1ccccc1)NC(=O)[C@H](CCCN=C(N)N)NC(=O)[C@H](CCCN=C(N)N)NC(=O)[C@@H](N)C(C)C)C(=O)N[C@@H](CCCN=C(N)N)C(=O)N[C@@H](CCCN=C(N)N)C(N)=O [VRRFPWAAPFLRR] | 90.5 µM (≈ 151 µg/mL) |  |  |
| CC(C)[C@H](NC(=O)[C@H](CC(=O)O)NC(=O)[C@H](CO)NC(=O)[C@H](CCCCN)NC(=O)[C@@H](N)Cc1c[nH]c2ccccc12)C(=O)N[C@@H](CCCN=C(N)N)C(=O)N[C@@H](CCCN=C(N)N)C(=O)N[C@@H](Cc1c[nH]c2ccccc12)C(=O)N[C@@H](CCCN=C(N)N)C(=O)N[C@@H](CO)C(=O)N[C@@H](CCCN=C(N)N)C(=O)N[C@@H](Cc1ccc(O)cc1)C(N)=O [WKSDVRRWRSRY] | 64 µM (≈ 108 µg/mL) | > 100 | MIC [3]: > 100 µM |
| CC(C)[C@H](NC(=O)[C@H](Cc1ccc(O)cc1)NC(=O)[C@H](CO)NC(=O)[C@H](CCCCN)NC(=O)[C@@H](N)Cc1c[nH]c2ccccc12)C(=O)N[C@@H](CCCN=C(N)N)C(=O)N[C@@H](CCCN=C(N)N)C(=O)N[C@@H](Cc1c[nH]c2ccccc12)C(=O)N[C@@H](CCCN=C(N)N)C(N)=O [WKSYVRRWR] | 64 µM (≈ 85.5 µg/mL) | 64 (≈ 85.5 µg/mL) | MIC [3]: > 100 µM |
